Results from paper PMC12434667 (Journal of Medicinal Chemistry, 2025).
“And” between values parts separate entries of the source, which are not always exact repeats. Identical values can stand only once.

Assays:
[1] = Rat PK; format: in vivo; details: plasma, po, 10 mg/kg
[2] = target: CDK1 (Homo sapiens, UniProt P06493); assay: 24-hr AlphaLISA of CDK1 degradation in TOV21G cells; format: cell-based; details: vs CDK2 degradation
[3] = target: CDK4 (Homo sapiens, UniProt P11802); assay: 24-hr western blot of CDK4 degradation in TOV21G cells; format: cell-based; details: read-out: TOV21G CDK4 DC50
Chain of CDK4 (P11802 whole entry): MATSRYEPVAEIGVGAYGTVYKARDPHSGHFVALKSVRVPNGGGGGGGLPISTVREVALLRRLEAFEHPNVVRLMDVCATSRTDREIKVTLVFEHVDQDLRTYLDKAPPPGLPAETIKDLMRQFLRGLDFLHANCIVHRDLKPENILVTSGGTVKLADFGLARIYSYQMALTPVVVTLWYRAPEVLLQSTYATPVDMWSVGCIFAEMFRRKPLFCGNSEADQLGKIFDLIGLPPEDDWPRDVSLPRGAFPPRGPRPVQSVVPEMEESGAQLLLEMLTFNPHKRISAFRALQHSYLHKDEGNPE

[4] = target: CDK6 (Homo sapiens, UniProt Q00534); assay: 24-hr western blot of CDK6 degradation in TOV21G cells; format: cell-based; details: read-out: TOV21G CDK6 DC50
Chain of CDK6 (Q00534 whole entry): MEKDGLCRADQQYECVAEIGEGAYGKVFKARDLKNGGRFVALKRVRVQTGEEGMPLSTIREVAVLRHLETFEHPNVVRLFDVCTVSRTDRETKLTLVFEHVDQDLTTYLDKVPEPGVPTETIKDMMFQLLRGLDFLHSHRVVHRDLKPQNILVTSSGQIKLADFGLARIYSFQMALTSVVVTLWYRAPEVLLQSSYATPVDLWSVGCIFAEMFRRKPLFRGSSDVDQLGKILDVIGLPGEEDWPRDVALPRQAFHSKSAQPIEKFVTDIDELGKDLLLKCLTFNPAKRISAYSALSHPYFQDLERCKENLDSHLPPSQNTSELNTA

[5] = target: CDK9 (Homo sapiens, UniProt P50750); assay: 24-hr AlphaLISA of CDK9 degradation in TOV21G cells; format: cell-based
Chain of CDK9 (P50750 whole entry): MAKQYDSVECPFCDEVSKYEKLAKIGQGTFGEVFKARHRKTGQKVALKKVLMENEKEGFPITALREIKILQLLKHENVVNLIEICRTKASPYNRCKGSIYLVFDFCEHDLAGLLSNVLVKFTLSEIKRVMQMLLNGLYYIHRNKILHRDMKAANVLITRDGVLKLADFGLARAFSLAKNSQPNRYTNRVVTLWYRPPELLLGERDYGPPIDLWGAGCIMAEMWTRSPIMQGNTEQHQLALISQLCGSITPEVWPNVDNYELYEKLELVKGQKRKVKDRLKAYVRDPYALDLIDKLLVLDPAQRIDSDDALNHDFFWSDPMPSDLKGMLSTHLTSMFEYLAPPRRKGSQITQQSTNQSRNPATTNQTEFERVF

[6] = system: pRB S807/811; assay: 24-hr AlphaLISA of pRB inhibition in MKN1 cells; format: cell-based; details: Homo sapiens, MKN-1, 24 h
[7] = Monkey PK; format: in vivo
[8] = Dog PK; format: in vivo
[9] = system: human PBMC cells; assay: Tandem mass tag deep proteome profiling; format: cell-based; details: 800 nM, 8 h, over 8000 proteins
[10] = Plasma PK in HCC1569 xenograft model; format: in vivo; details: mouse HCC1569 xenograft; for AUC0–24h free: mouse PPB 98.02%
[11] = Plasma protein binding; format: in vitro ADME; details: mouse
[12] = system: HCC1569 tumor xenograft; assay: HCC1569 tumor xenograft efficacy; format: in vivo, mouse; details: 28 days; for day 28 %dTV (mean ± SEM): HCC1569 xenograft mice
[13] = system: pRB; assay: Tumor AlphaLISA; format: in vivo, mouse; details: HCC1569 xenograft, sustained

Chain of CDK1 (P06493 whole entry): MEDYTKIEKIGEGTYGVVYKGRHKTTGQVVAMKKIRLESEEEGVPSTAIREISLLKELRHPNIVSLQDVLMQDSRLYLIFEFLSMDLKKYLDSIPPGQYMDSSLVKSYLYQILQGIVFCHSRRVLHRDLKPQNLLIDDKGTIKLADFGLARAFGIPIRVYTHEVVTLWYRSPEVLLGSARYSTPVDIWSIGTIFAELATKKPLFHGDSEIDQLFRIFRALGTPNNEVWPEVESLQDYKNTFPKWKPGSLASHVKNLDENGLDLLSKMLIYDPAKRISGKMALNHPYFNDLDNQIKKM

AUC(0-t) [1]: 3.63 µM·h
Cmax [1]: 261 nM
degradation selectivity over CDK1 [2]: > 100 fold
DC50 [3]: > 10000 nM
DC50 [4]: 1280 nM
DC50 ([5]; read-out: TOV21G CDK9 DC50, 24 h): > 10000 nM
degradation selectivity over CDK9 ([5]; vs CDK2 degradation): > 500 fold
IC50 ([6]; read-out: MKN1 pRB IC50): 23 nM
IC90 ([6]; read-out: MKN1 pRB IC90): 110 nM
monkey F ([7]; IV 0.07 / PO 1 mg/kg, 1 mg/kg): 12%
Vd ([7]; plasma, iv, 0.07 mg/kg): 5.7 L/kg
clearance ([7]; plasma, iv, 0.07 mg/kg): 9.1 mL/min/kg
half-life ([7]; plasma, iv, 0.07 mg/kg): 8.6 h
AUC(0-t) ([7]; plasma, po, 1 mg/kg): 0.25 µM·h
Cmax ([7]; plasma, po, 1 mg/kg): 14 nM
dog F ([8]; IV 0.1 / PO 1 mg/kg, 1 mg/kg): 12%
Vd ([8]; plasma, iv, 0.1 mg/kg): 4.2 L/kg
clearance ([8]; plasma, iv, 0.1 mg/kg): 3.9 mL/min/kg
half-life ([8]; plasma, iv, 0.1 mg/kg): 14.4 h
AUC(0-t) ([8]; plasma, po, 1 mg/kg): 0.557 µM·h
Cmax ([8]; plasma, po, 1 mg/kg): 26 nM
AUC0–24h/D ([10]; PO 10 mg/kg BID × 3 days): 624 mg·h/mL
AUC0–24h/D ([10]; PO 25 mg/kg BID × 3 days): 709 mg·h/mL
AUC0–24h free ([10]; PO 25 mg/kg BID × 3 days): 14.2 ng·h/mL
AUC0–24h/D ([10]; PO 50 mg/kg BID × 3 days): 949 mg·h/mL
AUC0–24h free ([10]; PO 50 mg/kg BID × 3 days): 19.0 ng·h/mL
AUC0–24h/D ([10]; PO 50 mg/kg QD × 3 days): 1377 mg·h/mL
AUC0–24h free ([10]; PO 50 mg/kg QD × 3 days): 27.5 ng·h/mL
fraction unbound at 30 min, 1 µM [11]: 0.0198
Structure (SMILES): C[C@]1(O)CCCN(c2nc(Nc3ccc(S(=O)(=O)N[C@@H]4CCN(CC5CCN(c6ccc(C7CCC(=O)NC7=O)cc6F)CC5)C[C@@H]4F)cc3F)ncc2C(F)(F)F)C1 (stereo partly drawn) [Compound 37, N-[(3S,4R)-1-[[1-[4-(2,6-Dioxo-3-piperidyl)-2-fluoro-phenyl]-4-piperidyl]methyl]-3-fluoro-4-piperidyl]-3-fluoro-4-[[4-[(3S)-3-hydroxy-3-methyl-1-piperidyl]-5-(trifluoromethyl)pyrimidin-2-yl]amino]benzenesulfonamide]
significantly downregulated proteins [9]: CDK2 as the only significantly downregulated protein
antitumor activity ([12]; 25 mg/kg PO BID): stable disease (30 to −30% is stable disease (0% = Tumor Stasis))
day 28 %dTV (mean ± SEM) ([12]; 25 mg/kg PO BID): –26 ± 9%
antitumor activity ([12]; 50 mg/kg PO BID): stable disease (30 to −30% is stable disease (0% = Tumor Stasis))
day 28 %dTV (mean ± SEM) ([12]; 50 mg/kg PO BID): –24 ± 10%
antitumor activity ([12]; 50 mg/kg PO QD): stable disease (30 to −30% is stable disease (0% = Tumor Stasis))
inhibition of pRB in tumor [13]: 90% and > 90%
